Measurements reported in paper PMC2813745, “A novel inhibitor of the PI3K/Akt pathway based on the structure of inositol 1,3,4,5,6-pentakisphosphate” (British Journal of Cancer, 2010).

Legend:
PDK1 = molecular target: T1, PDK1 (Homo sapiens, UniProt O15530); assay: SelectScreen kinase profiling: PDK1; type: biochemical; settings: 1 µM compound; [ATP] 100 µM; single point
T1 sequence (O15530 1-556): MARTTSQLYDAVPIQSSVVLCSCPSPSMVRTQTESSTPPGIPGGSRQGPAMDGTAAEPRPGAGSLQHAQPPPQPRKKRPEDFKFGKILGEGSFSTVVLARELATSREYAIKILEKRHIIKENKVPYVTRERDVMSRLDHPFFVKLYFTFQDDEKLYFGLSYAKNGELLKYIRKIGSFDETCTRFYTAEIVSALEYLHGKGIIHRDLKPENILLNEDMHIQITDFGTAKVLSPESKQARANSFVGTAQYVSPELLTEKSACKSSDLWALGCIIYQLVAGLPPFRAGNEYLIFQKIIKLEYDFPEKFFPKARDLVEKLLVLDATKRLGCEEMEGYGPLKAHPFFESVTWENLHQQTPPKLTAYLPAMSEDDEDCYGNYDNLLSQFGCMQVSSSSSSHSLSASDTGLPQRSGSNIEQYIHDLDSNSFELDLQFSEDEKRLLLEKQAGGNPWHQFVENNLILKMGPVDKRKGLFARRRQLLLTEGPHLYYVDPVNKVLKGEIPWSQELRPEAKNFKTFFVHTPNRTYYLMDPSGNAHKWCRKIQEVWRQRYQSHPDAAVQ
Description: Effect of the indicated compounds on the activity of various kinases was assessed by SelectScreen Kinase Profiling Service (Invitrogen-Life Technologies, Paisley, UK). Assays were performed using 1 μM of the tested compounds and ATP concentration as indicated in the corresponding tables. In the case of […] a screen using 10 μM of the compound was also carried out, as indicated in the corresponding table.

MCF7 = assay: Cell survival by cell counting, MCF7; type: cell-based, human; settings: MCF7, 72 h, 20 nM 4-OH Tamoxifen, 50 μM 2-O-Bn-InsP5 alone or in combination
Description: Cells seeded in a 24-well plate were treated with the indicated compounds in serum free DMEM or DMEM containing 0.5% FBS (PC3). After 72 h, the number of surviving cells was assessed by manual cell counting or by using the cell counter CDA-500 (Sysmex, Milton Keynes, UK). Alternatively, after 48 h, the number of apoptotic cells was assessed by acridine orange/ethidium bromide assay as described ([Piccolo et al, 2004]; [Maffucci et al, 2005]). SRB test was carried out in SKOV-3 and PC3 seeded in 96-well plate (3800 cells per well or 5800 cells per well, respectively) after 72 h of treatment as described ([Cappella et al, 2001]).
Data are mean±s.e. of n=4 independent experiments carried out in duplicate. […] Data are mean±s.e. of n=5 independent experiments carried out in duplicate. […] Data are mean±s.e. of n=6 independent experiments carried out in duplicate. […] Data are mean±s.e. of n=2 independent experiments carried out in duplicate. In all cases (A–D), cells were treated for 72 h and the number of surviving cells was assessed by cell counting. […] In all cases (E, F), cells were treated for 72 h and the number of surviving cells was assessed by SRB assay and data are mean±s.e. of two experiments carried out in quadruplicate.

Row | % Inhibition Mean (PDK1) [%] | Compound | number of surviving cells (MCF7)
1 | 17 | O=P(O)(O)O[C@@H]1[C@H](O)[C@H](O)[C@@H](OP(=O)(O)O)[C@H](OP(=O)(O)O)[C@H]1O [Ins(1,4,5)P3] | 
2 | 35 | O=P(O)(O)O[C@H]1[C@H](OP(=O)(O)O)[C@@H](OP(=O)(O)O)[C@@H](O)[C@@H](O)[C@@H]1OP(=O)(O)O [Ins(3,4,5,6)P4] | 
3 |  | 4-hydroxy-tamoxifen [4-OH tamoxifen, reference compound] | reduced the number of surviving cells
4 | 33 | O=P(O)(O)O[C@H]1[C@H](OP(=O)(O)O)[C@@H](OP(=O)(O)O)[C@@H](O)[C@@H](O)[C@@H]1OP(=O)(O)O [Ins(1,4,5,6)P4] | 
5 | 18 | O=P(O)(O)O[C@H]1[C@H](OP(=O)(O)O)[C@@H](OP(=O)(O)O)[C@H](OP(=O)(O)O)[C@@H](OP(=O)(O)O)[C@H]1OP(=O)(O)O [Ins(1,2,3,4,5,6)P6] | 
6 | 56 | O=P(O)(O)O[C@H]1[C@H](O)[C@@H](OP(=O)(O)O)[C@H](OP(=O)(O)O)[C@@H](OP(=O)(O)O)[C@H]1O [Ins(1,3,4,5)P4] | 
